In this assay the test system is TNBS induced IBS model. The assay can be described thus: Colonic distension study in TNBS induced rat IBS model (pain threshold). The class given is in vivo. Particulars: male SD rats, TNBS 50 mg/kg, 7 days after surgery; 10 mg/kg p.o.; FIG. 1. The method, then: [Evaluation of Therapeutic Effects on IBS in the Rat]
The pharmacological effects of the test compounds in this invention was evaluated by measuring the improvement effect against lowering of the pain threshold at colon extension stimulation in TNBS induced IBS model.
For details, please refer to the literature, Katsuyo Ohashi at al., Pharmacology, 81(2): 144-150 (2008).
The median incision was conducted under anesthesia in animals, male SD rats, 240-270 g. TNBS solution (50 mg/kg, 30% methanol) was treated at the beginning of the colon in the rats. After the treatment, the cecum is put back into the abdominal cavity. The muscle wall is then sutured. After operation the animals were housed in the normal environment, and were used for the pharmacological evaluation after 7 days from the surgery. The colon extension stimulation was used for the evaluation of the compounds, Diop L. et al., J Pharmacol Exp Ther. 302(3): 1013-22 (2002). The balloon (5 cm in length) is inserted through the anus and kept in position (tip of balloon is 5 cm from the anus). Then the balloon was progressively inflated by step of 5 mm Hg, from 0 to 70 mm Hg by using Barostat (Barostat DISTENDER II R, G & J, CANADA). The pain threshold was evaluated the pressure that corresponded to produced the first abdominal contraction (abdominal cramp: Wesselmann U et al., (1998) Neurosci Lett 246: 73-76). […]

The text below walks through data of patent US8252790B2, “Pyrazole-3-carboxamide derivative having 5-HT2B receptor antagonist activity” (Raqualia Pharma Inc., priority 2008, dated 2012).

Turning to `Cn1nc(C(=O)NCCN2CCOCC2)cc1-c1cc2cccnc2[nH]1` [Example compound 24, 1-methyl-N-[2-(morpholin-4-yl)ethyl]-5-{1H-pyrrolo[2,3-b]pyridin-2-yl}-1H-pyrazole-3-carboxamide], the “improvement effect against lowering of the pain threshold at colon extension stimulation” value is “improvement effects against lowering of the pain threshold”.
